This note sets out measurements from US20120220488A1, “HEART AGING BIOMARKERS AND METHODS OF USE” (priority 2009, published 2012).

Structures are written as SMILES.

Assay type in all cases: in vivo
One assay concerns Akt1. Kind of assay: Microarray gene expression in heart tissue, Study 2. The settings on record: Study 2, mouse heart tissue, old (30) + Resveratrol vs old; probe 1425711_a_at. The text has this:
(§1) Two public rodent cardiac aging gene expression data sets were selected from the NCBI's Gene Expression Omnibus (GEO): (1) The University of Washington's rat study (UW) (Linford J L et al. (2007) Transcriptional Response to Aging and Calorie Restriction in Heart and Adipose Tissue. Aging Cell 6: 673-688)) (Study 1); and (2) LifeGen's mouse study (Barger J L et al. (2008) A Low Dose of Dietary Resveratrol partially Mimics Calorie Restriction and Retards Aging Parameters in Mice. PLoS ONE 3(6): 1-10) (Study 2). Materials and methods for the two studies are shown in the references. A third data set came from an unpublished mouse cardiac aging study. In that study, mice were divided into two groups (n=7) and were fed with control diet according to the proceedings in the Barger study. Mice were sacrificed at the ages of 5 months (young group) and 25 months (old group). Heart tissues were collected and subject to microarray gene expression assays (Study 3). In Study 2 and Study 3, Affymetrix mouse genome 430 2.0 gene chips were used. In Study 1, Affymetrix rat genome 230 2.0 gene chips were used. A description of the three studies is outlined in Table 1.
(§2) Data were first inspected for quality and examined for possible outliers. Three samples, one from each Study, were identified as outliers and were removed from further analysis. Differential genes were identified between young and old groups in each Study using Significance Analysis of Microarrays (SAM) algorithm (Tusher, Tibshirani and Chu (2001) Significance analysis of microarrays applied to the ionizing radiation response. PNAS 2001 98: 5116-5121). The selection criteria include magnitude of expression change (fold>=1.2) and false discovery rate (FDR<0.5%).
(§3) Genes in the Wnt pathway were further examined for their expressional changes. […] Those genes/proteins are listed in Table 2, along with respective representative GenBank Accession Numbers, and the Study 2 results are shown in Table 3. The expression of these genes was also examined in the calorie restricted (CR) group and resveratrol (“Resv”) group.

A further assay concerns Camk2d. The description is as above. The settings on record: Study 2, mouse heart tissue, old (30) + Resveratrol vs old; probe 1427763_a_at.
Text: as §1, §2, §3

The next assay concerns Ccnd1. The description is as above. The settings on record: Study 2, mouse heart tissue, old (30) + Resveratrol vs old; probe 1448698_at.
Text: as §1, §2, §3

Another assay has as its system Dab2. The assay is described as above. The settings on record: Study 2, mouse heart tissue, old (30) + Resveratrol vs old; probe 1430604_a_at.
Text: as §1, §2, §3

For the next assay, the system named is Dlgh1. The description is as above. The conditions noted are these: Study 2, mouse heart tissue, old (30) + Resveratrol vs old; probe 1450768_at.
Text: as §1, §2, §3

A further assay relates to Magi3. The description is as above. The conditions noted are these: Study 2, mouse heart tissue, old (30) + Resveratrol vs old; probe 1421035_a_at.
Text: as §1, §2, §3

The test system of a further assay is Mapk1. Described as above. The settings on record: Study 2, mouse heart tissue, old (30) + Resveratrol vs old; probe 1426585_s_at.
Text: as §1, §2, §3

The subject of the next assay is Mark2. The description is as above. The conditions noted are these: Study 2, mouse heart tissue, old (30) + Resveratrol vs old; probe 1435889_at.
Text: as §1, §2, §3

For another assay, the system named is Pias4. The description is as above. The settings on record: Study 2, mouse heart tissue, old (30) + Resveratrol vs old; probe 1455394_at.
Text: as §1, §2, §3

The subject of a further assay is Rac1. The description is as above. The settings on record: Study 2, mouse heart tissue, old (30) + Resveratrol vs old; probe 1423734_at.
Text: as §1, §2, §3

A further assay concerns Senp2. The description is as above. The conditions noted are these: Study 2, mouse heart tissue, old (30) + Resveratrol vs old; probe 1425465_a_at.
Text: as §1, §2, §3

A further assay deals with Smad3. Described as above. The settings on record: Study 2, mouse heart tissue, old (30) + Resveratrol vs old; probe 1450471_at.
Text: as §1, §2, §3

Another assay deals with Ctnnb1 (beta-catenin). The assay is described as above. The settings on record: Study 2, mouse heart tissue, old (30) + Resveratrol vs old; for Fold Change Resv vs. Old, Ctnnb1(1): Ctnnb1 probe 1.
Text: as §1, §2
Genes in the Wnt pathway were further examined for their expressional changes. […] Those genes/proteins are listed in Table 2, along with respective representative GenBank Accession Numbers, and the Study 2 results are shown in Table 3. The expression of these genes was also examined in the calorie restricted (CR) group and resveratrol (“Resv”) group. […]

A further assay deals with Wnt pathway genes. The assay can be described thus: Wnt pathway gene expression in aged heart, Study 2. The conditions noted are these: Study 2, mouse aged heart; all but three of the genes of Table 2/3.
Text: as §1, with “Mice were sacrificed at the ages of 5 months (young group) and 25 months (old group). Heart tissues were collected and subject to microarray gene expression assays (Study 3). In Study 2 and Study 3, Affymetrix mouse genome 430 2.0 gene chips were used. In Study 1, Affymetrix rat genome 230 2.0 gene chips were used. A description of the three studies is outlined in Table 1.” left out
To determine the impact of gene expression changes in the systems level, pathway analysis was conducted on the data sets from Study 2 and Study 3 using GenMAPP and MAPPFinder software (Salomonis, K Hanspers, A C Zambon, K Vranizan, S C Lawlor, K D Dahlquist, S W Doniger, J Stuart, B R Conklin, and A R Pico. GenMAPP 2: new features and resources for pathway analysis. BMC Bioinformatics, June 2007; 8: 217). […] The inventors determined that the Wnt signaling pathway was among those with most significant associations (adjusted p value of 0.011 in both the Study 2 and Study 3 data sets). […]

Consider `Oc1ccc(C=Cc2cc(O)cc(O)c2)cc1` [Resv, resveratrol], for which the “Fold Change Resv vs. Old, Akt1” value in the assay on Akt1 is recorded as −1.315 fold. Besides, the “Fold Change Resv vs. Old, Camk2d” value in the assay with Camk2d stood at 1.235 fold. The “Fold Change Resv vs. Old, Ccnd1” value in the assay with Ccnd1 is −1.158 fold. Besides, the “Fold Change Resv vs. Old, Dab2” value in the assay with Dab2 was determined as 1.227 fold. In addition, in the assay on Dlgh1, the “Fold Change Resv vs. Old, Dlgh1” value was 1.150 fold. Also, in the assay with Magi3, the “Fold Change Resv vs. Old, Magi3” value is 1.244 fold. Also, the “Fold Change Resv vs. Old, Mapk1” value with Mapk1 was −1.020 fold. For the same compound, the “Fold Change Resv vs. Old, Mark2” value in the assay on Mark2 is −2.113 fold. The “Fold Change Resv vs. Old, Pias4” value with Pias4 is on record as −1.495 fold. Besides, the “Fold Change Resv vs. Old, Rac1” value in the assay on Rac1 amounted to 1.509 fold. In addition, in the assay on Senp2, the “Fold Change Resv vs. Old, Senp2” value was found to be 1.261 fold. The “Fold Change Resv vs. Old, Smad3” value in the assay with Smad3 was 1.285 fold. Also, the “Fold Change Resv vs. Old, Ctnnb1(1)” value with Ctnnb1 (beta-catenin) came out at 2.787 fold; in the assay with Ctnnb1 (beta-catenin) (listed as Resveratrol), 2.79 fold. Moreover, in the assay on Ctnnb1 (beta-catenin) (Ctnnb1 probe 2), the “Fold Change Resv vs. Old, Ctnnb1(2)” value was determined as 2.017 fold. Besides, the “Expression of Wnt pathway genes decreased in aged heart, after treatment” value in the assay on Wnt pathway genes was “elevated to their young levels”.
